Results on 1 molecule are retold here after patent US11878063B2, “Engineered ligands and uses thereof” (Children's Medical Center Corporation, priority 2019, dated 2024).

Molecules are shown by their SMILES.

In assay [1] the target is T1, human PTHR1 (Homo sapiens, UniProt Q03431).
T1 construct: expressed in transfected cells
T1 sequence (Q03431 27-593): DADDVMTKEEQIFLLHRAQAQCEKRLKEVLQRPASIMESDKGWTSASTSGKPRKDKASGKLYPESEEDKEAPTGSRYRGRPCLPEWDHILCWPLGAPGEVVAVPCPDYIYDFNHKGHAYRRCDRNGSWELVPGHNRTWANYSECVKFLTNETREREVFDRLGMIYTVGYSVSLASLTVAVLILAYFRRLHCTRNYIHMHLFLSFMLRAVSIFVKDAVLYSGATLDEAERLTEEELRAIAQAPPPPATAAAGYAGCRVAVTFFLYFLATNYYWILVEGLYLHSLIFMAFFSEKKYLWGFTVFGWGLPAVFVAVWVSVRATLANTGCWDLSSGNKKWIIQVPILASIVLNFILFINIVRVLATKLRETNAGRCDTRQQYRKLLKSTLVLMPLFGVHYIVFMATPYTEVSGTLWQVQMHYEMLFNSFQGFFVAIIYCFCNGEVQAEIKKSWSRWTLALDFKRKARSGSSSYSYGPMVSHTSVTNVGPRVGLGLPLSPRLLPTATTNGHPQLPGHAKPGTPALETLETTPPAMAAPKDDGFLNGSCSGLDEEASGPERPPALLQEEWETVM
Briefly: cAMP induction (cAMP-responsive luciferase) in HEK293 cells stably expressing human PTHR1. As to conditions: maximal cAMP response, normalized. The assay is classed as cell-based. How it is done: (§1) Measurement of cAMP response. These assays were performed as previously described^27. […] Confluent monolayers of cells were pre-incubated with CO2 independent medium containing D-luciferin (0.5 mM) at 37° C. until a stable baseline level of luminescence was established (20 min). Varying concentrations of ligands were then added, and the time course of luminescence response was recorded using BioTek plate reader.
(§2) Data calculations. Data were processed using Microsoft Excel and GraphPad Prism 6. Data from cAMP dose-response assays were analyzed using a sigmoidal dose-response model with variable slope. Data sets were statistically compared by using Student's t test (two-tailed) assuming unequal variances for the two sets.

Assay [2] deals with T2, PTHR2 (Homo sapiens, UniProt P49190).
T2 construct: expressed in transfected cells
T2 sequence (P49190 25-550): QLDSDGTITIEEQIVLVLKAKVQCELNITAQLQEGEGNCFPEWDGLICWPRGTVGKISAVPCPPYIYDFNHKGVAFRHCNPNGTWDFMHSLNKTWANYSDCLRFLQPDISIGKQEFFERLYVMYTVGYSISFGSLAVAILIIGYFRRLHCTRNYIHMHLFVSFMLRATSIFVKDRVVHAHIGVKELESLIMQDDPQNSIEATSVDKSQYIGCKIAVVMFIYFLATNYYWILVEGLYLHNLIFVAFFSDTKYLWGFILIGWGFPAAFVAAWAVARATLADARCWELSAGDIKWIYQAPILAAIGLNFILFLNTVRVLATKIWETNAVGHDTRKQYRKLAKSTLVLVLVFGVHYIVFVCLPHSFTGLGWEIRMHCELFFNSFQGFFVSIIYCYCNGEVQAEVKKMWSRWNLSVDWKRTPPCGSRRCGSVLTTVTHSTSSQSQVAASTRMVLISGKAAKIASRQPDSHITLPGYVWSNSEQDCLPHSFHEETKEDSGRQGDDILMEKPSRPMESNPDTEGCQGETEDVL
Briefly: cAMP induction in HEK293 cells stably expressing human PTHR2. It counts as cell-based. As to conditions: maximal cAMP response, normalized. How it is done: as §1, §2

The target of assay [3] is T3, PTHR16E (Homo sapiens, UniProt Q03431, A83I/D81R/G76A/K80A/K82Q/P78E/R79L/S71Q/S73D/S75E/T74Q).
T3 construct: expressed in transfected cells
T3 sequence (Q03431 27-593 S71Q/S73D/T74Q/S75E/G76A/P78E/R79L/K80A/D81R/K82Q/A83I): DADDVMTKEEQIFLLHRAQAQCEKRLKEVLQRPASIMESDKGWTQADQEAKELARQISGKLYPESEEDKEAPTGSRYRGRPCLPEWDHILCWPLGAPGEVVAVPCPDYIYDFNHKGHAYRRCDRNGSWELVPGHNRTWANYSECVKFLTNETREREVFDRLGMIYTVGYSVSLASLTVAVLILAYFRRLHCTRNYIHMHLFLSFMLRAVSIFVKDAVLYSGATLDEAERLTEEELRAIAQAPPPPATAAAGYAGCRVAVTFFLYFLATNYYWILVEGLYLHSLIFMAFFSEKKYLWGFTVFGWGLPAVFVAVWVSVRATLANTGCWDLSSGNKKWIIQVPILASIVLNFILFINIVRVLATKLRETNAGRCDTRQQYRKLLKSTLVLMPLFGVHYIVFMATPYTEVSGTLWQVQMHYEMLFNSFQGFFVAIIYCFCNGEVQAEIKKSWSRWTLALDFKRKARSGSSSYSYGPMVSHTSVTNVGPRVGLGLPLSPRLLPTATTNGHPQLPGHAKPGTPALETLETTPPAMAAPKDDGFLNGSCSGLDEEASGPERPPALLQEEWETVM
Description: cAMP induction in HEK293 cells stably expressing PTHR16E (6E/Ubc6e epitope tag in exon 2 segment). The assay is classed as cell-based. Conditions: maximal cAMP response, normalized. How it is done:
(§3) Measurement of cAMP response. These assays were performed as previously described^27. Briefly, HEK-293-derived cell lines that stably express the Glosensor cAMP reporter (Promega Corp.)^30 and PTHR1, a PTHR1 variant, or PTHR2 were seeded into white sided 96 well plates (50,000 cells/well) and grown to confluency. Confluent monolayers of cells were pre-incubated with CO2 independent medium containing D-luciferin (0.5 mM) at 37° C. until a stable baseline level of luminescence was established (20 min). Varying concentrations of ligands were then added, and the time course of luminescence response was recorded using BioTek plate reader.
as §2
(§4) The portion of PTHR1 encoded by exon 2 is not resolved in structural studies (FIG. 12—Panel d)^13, 14, 17, is not important for ligand binding^18, and in past work has been targeted as a site for receptor modification^18, 19. A construct was generated that encodes a PTHR1 variant in which a 14-residue fragment from exon 2 was replaced with a 14-mer epitope tag from the intracellular protein UBC6e (PTHR16E, FIG. 12—Panel d)^20. A receptor construct in which a pH-sensitive green fluorescent protein variant (GFP) was inserted into the portion of the receptor encoded by exon 2 (PTHR1GFP in FIGS. 17A to 17C)^19. Another version of PTHR1 in which yellow fluorescent protein (YFP) replaces the entire extracellular domain (PTHR1YFPΔECD, FIG. 12—Panel e)^21, was also used.

Assay [4] relates to Mice (CD1 female). Briefly: Calcemic response: blood ionized calcium in mice after subcutaneous injection. It counts as in vivo, mouse. Conditions: 35 nmol/kg subcutaneous. The method, then: Animal experiments and measurement of in vivo response. Mice (CD1 female, age 11 weeks) were treated in accordance with the ethical guidelines adopted by Massachusetts General Hospital. […] Peptides and conjugates were administered at doses that allowed for differentiation between compounds with differing levels of in vivo activity^27. Statistical analyses were performed assuming Gaussian distribution of data. Mice (n=4 per compound) were injected subcutaneously with vehicle (10 mM citric acid/150 mM NaCl/0.05% Tween-80, pH 5.0) or vehicle containing PTH or conjugate at a dose of 35 nmol/kg body weight. […] Blood was withdrawn just before injection (t=0) or at times thereafter. Tail vein blood was collected and immediately analyzed. Blood Ca^2+ concentration was measured with a Siemens RapidLab 348 Ca2+/pH analyzer.

In assay [5] the test system is PTHR1YFPΔECD. Briefly: cAMP induction in HEK293 cells stably expressing PTHR1YFPΔECD (YFP replaces extracellular domain). The assay is classed as cell-based, human. How it is done:
as §3, §2, §4

The EC50 is the concentration at which the effect is half-maximal. Regarding `CC[C@H](C)[C@H](NC(=O)[C@H](CCC(=O)O)NC(=O)[C@H](CO)NC(=O)[C@@H](NC(=O)[C@@H](N)CO)C(C)C)C(=O)N[C@@H](CCC(N)=O)C(=O)N[C@@H](CC(C)C)C(=O)N[C@@H](CCSC)C(=O)N[C@@H](Cc1cnc[nH]1)C(=O)N[C@@H](CC(N)=O)C(=O)N[C@@H](CC(C)C)C(=O)NCC(=O)N[C@@H](CCCCN)C(=O)N[C@@H](Cc1cnc[nH]1)C(=O)N[C@@H](CC(C)C)C(=O)N[C@@H](CC(N)=O)C(=O)N[C@@H](CO)C(=O)N[C@@H](CCSC)C(=O)N[C@@H](CCC(=O)O)C(=O)N[C@@H](CCCN=C(N)N)C(=O)N[C@H](C(=O)N[C@@H](CCC(=O)O)C(=O)N[C@@H](Cc1c[nH]c2ccccc12)C(=O)N[C@@H](CC(C)C)C(=O)N[C@@H](CCCN=C(N)N)C(=O)N[C@@H](CCCCN)C(=O)N[C@@H](CCCCN)C(=O)N[C@@H](CC(C)C)C(=O)N[C@@H](CCC(N)=O)C(=O)N[C@@H](CC(=O)O)C(=O)N[C@H](C(=O)N[C@@H](Cc1cnc[nH]1)C(=O)N[C@@H](CC(N)=O)C(=O)N[C@@H](Cc1ccccc1)C(=O)O)C(C)C)C(C)C` [PTH(1-34)], the “Max (normalized ± SD), hPTHR1” value in assay [1] worked out at 1.00 ± 0.00. In addition, in assay [2], the “Max (normalized ± SD), hPTHR2” value is given as 1 ± 0. In assay [3], the “Max (normalized ± SD), hPTHR16E” value is listed as 1 ± 0.0. Moreover, the “time of peak blood ionized calcium after injection” value in assay [4] was 1 to 2 h. The “blood ionized calcium response” value in assay [4] (n=4) is “strong increase”. In addition, in assay [5] (maximal cAMP response, normalized), the “Max (normalized ± SD), hPTHR1YFPΔECD” value came to 1.00 ± 0.00. Also, the concentration giving a half-maximal response (EC50) in assay [5] (mean ± SD, Inactive = response <5% of maximal, read-out: EC50, cAMP induction, hPTHR1YFPΔECD) worked out at 689 ± 301 nM.
